Test results: ChEMBL document CHEMBL1201862, “PubChem BioAssay data set” (2004)
“And” between values parts separate entries of the source, which are not always exact repeats. Identical values can stand only once.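 Exposure lasted 48 hours, with cells grown in 96-well plates and compounds tested at five concentrations. GI50 marks 50% less growth.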 The source made the active and inactive calls. Rule as the data show it: active = GI50 up to about 1.1 µM and inactive = higher.

How the values were obtained:
Assay in all cases: inhibition of tumour cell growth, NCI panel, 48 h
M14 = tested on: M14
ACHN = tested on: ACHN
UACC-257 = tested on: UACC-257
SN12C = tested on: SN12C
OVCAR-3 = tested on: OVCAR-3
DU-145 = tested on: DU-145
SK-MEL-2 = tested on: SK-MEL-2
OVCAR-5 = tested on: OVCAR-5
LOX IMVI = tested on: LOX IMVI
CCRF-CEM = tested on: CCRF-CEM
HOP-62 = tested on: HOP-62
SF-268 = tested on: SF-268
RPMI-8226 = tested on: RPMI-8226
UACC-62 = tested on: UACC-62
SK-MEL-5 = tested on: SK-MEL-5
T47D = tested on: T47D
OVCAR-8 = tested on: OVCAR-8
U-251 = tested on: U-251
EKVX = tested on: EKVX
NCI-H226 = tested on: NCI-H226
SF-295 = tested on: SF-295
TK-10 = tested on: TK-10
UO-31 = tested on: UO-31
HCC 2998 = tested on: HCC 2998
786-0 = tested on: 786-0
A498 = tested on: A498
HOP-92 = tested on: HOP-92
Hs-578T = tested on: Hs-578T
KM12 = tested on: KM12
MOLT-4 = tested on: MOLT-4
K562 = tested on: K562
SF-539 = tested on: SF-539
SK-MEL-28 = tested on: SK-MEL-28
HCT-15 = tested on: HCT-15
A549 = tested on: A549
Malme-3M = tested on: Malme-3M
SK-OV-3 = tested on: SK-OV-3
MDA-MB-231 = tested on: MDA-MB-231
MDA-N = tested on: MDA-N
MCF7 = tested on: MCF7
SNB-75 = tested on: SNB-75
NCI-H23 = tested on: NCI-H23
NCI-H460 = tested on: NCI-H460
SR = tested on: SR
SW-620 = tested on: SW-620
PC-3 = tested on: PC-3
MDA-MB-435 = tested on: MDA-MB-435
HT-29 = tested on: HT-29
NCI/ADR-RES = tested on: NCI/ADR-RES
SNB-19 = tested on: SNB-19
OVCAR-4 = tested on: OVCAR-4
HL-60 = tested on: HL-60
COLO 205 = tested on: COLO 205
CAKI-1 = tested on: CAKI-1
IGROV-1 = tested on: IGROV-1
RXF 393 = tested on: RXF 393
NCI-H522 = tested on: NCI-H522
HCT-116 = tested on: HCT-116

Structure (SMILES): CN(C)c1ccc(/C=C/c2ccnc3ccccc23)cc1N
- GI50 (M14): 10.6 µM (inactive)
- GI50 (ACHN): 10.3 µM (inactive)
- GI50 (UACC-257): 2.42 µM (inactive)
- GI50 (SN12C): 14.8 µM (inactive)
- GI50 (OVCAR-3): 2.32 µM (inactive)
- GI50 (DU-145): 10.4 µM (inactive)
- GI50 (SK-MEL-2): 8.65 µM (inactive)
- GI50 (OVCAR-5): 13.7 µM (inactive)
- GI50 (LOX IMVI): 7.41 µM (inactive)
- GI50 (CCRF-CEM): 3 µM (inactive)
- GI50 (HOP-62): 13.8 µM (inactive)
- GI50 (SF-268): 9.73 µM (inactive)
- GI50 (RPMI-8226): 2.52 µM (inactive)
- GI50 (UACC-62): 12.1 µM (inactive)
- GI50 (SK-MEL-5): 2.82 µM (inactive)
- GI50 (T47D): 0.547 µM (active)
- GI50 (OVCAR-8): 8.85 µM (inactive)
- GI50 (U-251): 9.66 µM (inactive)
- GI50 (EKVX): 4.72 µM (inactive)
- GI50 (NCI-H226): 11.4 µM (inactive)
- GI50 (SF-295): 11 µM (inactive)
- GI50 (TK-10): 5.16 µM (inactive)
- GI50 (UO-31): 7.55 µM (inactive)
- GI50 (HCC 2998): 10.1 µM (inactive)
- GI50 (786-0): 12.6 µM (inactive)
- GI50 (A498): 10.4 µM (inactive)
- GI50 (HOP-92): 0.337 µM (active)
- GI50 (Hs-578T): 15.3 µM (inactive)
- GI50 (KM12): 7.85 µM (inactive)
- GI50 (MOLT-4): 5.64 µM (inactive)
- GI50 (K562): 3.98 µM (inactive)
- GI50 (SF-539): 14.7 µM (inactive)
- GI50 (SK-MEL-28): 13 µM (inactive)
- GI50 (HCT-15): 6.24 µM
- GI50 (A549): 6.81 µM (inactive)
- GI50 (Malme-3M): 10.9 µM (inactive)
- GI50 (SK-OV-3): 15.2 µM (inactive)
- GI50 (MDA-MB-231): 4.04 µM (inactive)
- GI50 (MDA-N): 3.1 µM (inactive)
- GI50 (MCF7): 1.57 µM (inactive)
- GI50 (SNB-75): 6.5 µM (inactive)
- GI50 (NCI-H23): 5.68 µM (inactive)
- GI50 (NCI-H460): 8.24 µM (inactive)
- GI50 (SR): 2.21 µM (inactive)
- GI50 (SW-620): 12.4 µM (inactive)
- GI50 (PC-3): 4.35 µM (inactive)
- GI50 (MDA-MB-435): 2.55 µM (inactive)
- GI50 (HT-29): 4.49 µM (inactive)
- GI50 (NCI/ADR-RES): 13.1 µM (inactive)
- GI50 (SNB-19): 14.4 µM (inactive)
- GI50 (OVCAR-4): 10.5 µM (inactive)
- GI50 (HL-60): 3.52 µM (inactive)
- GI50 (COLO 205): 2.53 µM (inactive)

Structure (SMILES): CCOc1ccc(-c2nc(-c3oc4ccccc4c(=O)c3OC(C)=O)cs2)cc1
- GI50 (M14): > 10 µM (inactive)
- GI50 (CAKI-1): > 10 µM (inactive)
- GI50 (UACC-257): > 10 µM (inactive)
- GI50 (SN12C): 9.93 µM (inactive)
- GI50 (DU-145): > 10 µM (inactive)
- GI50 (LOX IMVI): > 10 µM (inactive)
- GI50 (CCRF-CEM): 7.57 µM (inactive)
- GI50 (HOP-62): > 10 µM (inactive)
- GI50 (SF-268): 9.06 µM (inactive)
- GI50 (RPMI-8226): > 10 µM (inactive)
- GI50 (UACC-62): > 10 µM (inactive)
- GI50 (SK-MEL-5): > 10 µM (inactive)
- GI50 (T47D): > 10 µM (inactive)
- GI50 (OVCAR-8): > 10 µM (inactive)
- GI50 (EKVX): > 10 µM (inactive)
- GI50 (SF-295): > 10 µM (inactive)
- GI50 (TK-10): > 10 µM (inactive)
- GI50 (HCC 2998): > 10 µM (inactive)
- GI50 (786-0): > 10 µM (inactive)
- GI50 (KM12): > 10 µM (inactive)
- GI50 (MOLT-4): > 10 µM (inactive)
- GI50 (K562): 5.5 µM (inactive)
- GI50 (SK-MEL-28): 6.71 µM (inactive)
- GI50 (HCT-15): 7.13 µM
- GI50 (A549): > 10 µM (inactive)
- GI50 (Malme-3M): > 10 µM (inactive)
- GI50 (SK-OV-3): > 10 µM (inactive)
- GI50 (IGROV-1): > 10 µM (inactive)
- GI50 (MDA-MB-231): > 10 µM (inactive)
- GI50 (MDA-N): 6.18 µM (inactive)
- GI50 (MCF7): 3.52 µM (inactive)
- GI50 (SNB-75): 8.97 µM (inactive)
- GI50 (NCI-H23): > 10 µM (inactive)
- GI50 (SR): > 10 µM (inactive)
- GI50 (RXF 393): 2.62 µM (inactive)
- GI50 (SW-620): > 10 µM (inactive)
- GI50 (PC-3): > 10 µM (inactive)
- GI50 (HT-29): > 10 µM (inactive)
- GI50 (HL-60): > 10 µM (inactive)
- GI50 (COLO 205): > 10 µM (inactive)

Structure (SMILES): O=[N+]([O-])c1ccc(/N=N/c2c(O)ccc3ccccc23)cc1
- GI50 (CAKI-1): > 100 µM (inactive)
- GI50 (UACC-257): > 100 µM (inactive)
- GI50 (SN12C): > 100 µM (inactive)
- GI50 (OVCAR-3): 50.5 µM (inactive)
- GI50 (DU-145): > 100 µM (inactive)
- GI50 (NCI-H522): 0.293 µM (active)
- GI50 (SK-MEL-2): 84.9 µM (inactive)
- GI50 (OVCAR-5): > 100 µM (inactive) and 65.2 µM (inactive)
- GI50 (LOX IMVI): > 100 µM (inactive)
- GI50 (HCT-116): > 100 µM (inactive)
- GI50 (RPMI-8226): > 100 µM (inactive)
- GI50 (SK-MEL-5): > 100 µM (inactive)
- GI50 (T47D): > 100 µM (inactive)
- GI50 (UO-31): > 100 µM (inactive) and 98.4 µM (inactive)
- GI50 (HCC 2998): > 100 µM (inactive)
- GI50 (786-0): > 100 µM (inactive)
- GI50 (A498): > 100 µM (inactive)
- GI50 (MOLT-4): 95.1 µM (inactive)
- GI50 (K562): > 100 µM (inactive)
- GI50 (SF-539): > 100 µM (inactive)
- GI50 (SK-MEL-28): > 100 µM (inactive)
- GI50 (HCT-15): > 100 µM
- GI50 (IGROV-1): 19.4 µM (inactive) and > 32 µM (inactive)
- GI50 (MDA-MB-231): > 100 µM (inactive)
- GI50 (MDA-N): > 100 µM (inactive)
- GI50 (MCF7): > 100 µM (inactive)
- GI50 (NCI-H460): > 100 µM (inactive)
- GI50 (SR): > 22.2 µM (inactive) and 21.2 µM (inactive)
- GI50 (SW-620): > 100 µM (inactive)
- GI50 (PC-3): 73.5 µM (inactive)
- GI50 (MDA-MB-435): > 100 µM (inactive)
- GI50 (SNB-19): > 100 µM (inactive)
- GI50 (COLO 205): > 100 µM (inactive)
